Reference: ChEMBL document CHEMBL5584282, “The New Frontier in Neurotherapeutics: From Brain Stimulation to Novel Psychotropics” (ACS Med Chem Lett, 2024)
The source made the active and inactive calls. No cut-off for these calls is given here.

What was measured:
Assay type in all cases: functional, cell-based
Cortical neurone [1] = test: Neuroplasticity effect in Wistar rat brain cortical neuron assessed as neurite outgrowth by measuring increase in neurite number at <=10 uM incubated for 72 hrs by DAPI staining based imaging analysis
Cortical neurone [2] = test: Neuroplasticity effect in Wistar rat brain cortical neuron assessed as neurite outgrowth by measuring increase in neurite length at <=10 uM incubated for 72 hrs by DAPI staining based imaging analysis
Cortical neurone [3] = test: Neuroplasticity effect in Wistar rat brain cortical neuron assessed as neurite outgrowth by measuring increase in neurite branching at <=10 uM incubated for 72 hrs by DAPI staining based imaging analysis

Question: Which Activity (Cortical neurone [1]) does the source give for Fc1cccc2oc3c(c12)CN(C1CCC1)CCC3 here?
Answer: Active

Question: What about the Activity (Cortical neurone [2]) of the same molecule?
Answer: Active

Question: And the Activity (Cortical neurone [3])?
Answer: Active

Question: For COc1cccc2oc3c(c12)CN(C1CCC1)CCC3, which Activity (Cortical neurone [1]) is on record?
Answer: inactive

Question: And the Activity (Cortical neurone [2])?
Answer: inactive

Question: And the Activity (Cortical neurone [3])?
Answer: inactive

Question: For FC(F)(F)CN1CCc2sc3ccccc3c2CC1, which Activity (Cortical neurone [1]) is on record?
Answer: inactive

Question: What about the Activity (Cortical neurone [2]) of the same molecule?
Answer: Active

Question: And the Activity (Cortical neurone [3])?
Answer: Active

Question: Which results are given for COc1ccc2c3c(oc2c1)CCCN(CC(F)(F)F)C3?
Answer: Activity (Cortical neurone [1]): Active; Activity (Cortical neurone [2]): Active; Activity (Cortical neurone [3]): Active

Question: With COc1ccc2c3c(oc2c1)CCCN(C1CCC1)C3 as the molecule, how does the Activity (Cortical neurone [1]) read?
Answer: Active

Question: And the Activity (Cortical neurone [2])?
Answer: Active

Question: And the Activity (Cortical neurone [3])?
Answer: Active

Question: With COc1cccc2oc3c(c12)CCN(C1CCC1)CC3 as the molecule, how does the Activity (Cortical neurone [1]) read?
Answer: Active

Question: What about the Activity (Cortical neurone [2]) of the same molecule?
Answer: Active

Question: What about the Activity (Cortical neurone [3]) of the same molecule?
Answer: Active

Question: For CN1CCCc2oc3cccc(F)c3c2C1, which Activity (Cortical neurone [1]) is on record?
Answer: Active

Question: And the Activity (Cortical neurone [2])?
Answer: Active

Question: And the Activity (Cortical neurone [3])?
Answer: Active

Question: How did the Activity (Cortical neurone [1]) turn out when COc1ccc2c3c(oc2c1)CCCN(C)C3 was run?
Answer: Active

Question: And the Activity (Cortical neurone [2])?
Answer: Active

Question: What about the Activity (Cortical neurone [3]) of the same molecule?
Answer: Active

Question: Which results are given for FC(F)(F)Oc1cccc2sc3c(c12)CCN(C1CCC1)CC3?
Answer: Activity (Cortical neurone [1]): Active; Activity (Cortical neurone [2]): Active; Activity (Cortical neurone [3]): Active

Question: With Fc1cccc2oc3c(c12)CCN(C1CCC1)CC3 as the molecule, how does the Activity (Cortical neurone [1]) read?
Answer: Active

Question: And the Activity (Cortical neurone [2])?
Answer: Active

Question: And the Activity (Cortical neurone [3])?
Answer: inactive

Question: Which results are given for Fc1ccc2c3c(oc2c1)CCCNC3?
Answer: Activity (Cortical neurone [1]): Active; Activity (Cortical neurone [2]): Active; Activity (Cortical neurone [3]): Active

Question: With CN1CCc2oc3cccc(F)c3c2CC1 as the molecule, how does the Activity (Cortical neurone [1]) read?
Answer: inactive

Question: What about the Activity (Cortical neurone [2]) of the same molecule?
Answer: Active

Question: And the Activity (Cortical neurone [3])?
Answer: Active

Question: COc1ccc2c3c(sc2c1)CCNCC3 was tested. Which Activity (Cortical neurone [1]) did it give?
Answer: Active

Question: And the Activity (Cortical neurone [2])?
Answer: Active

Question: And the Activity (Cortical neurone [3])?
Answer: Active

Question: COc1cccc2oc3c(c12)CCNCC3 was tested. Which Activity (Cortical neurone [1]) did it give?
Answer: inactive

Question: And the Activity (Cortical neurone [2])?
Answer: inactive

Question: And the Activity (Cortical neurone [3])?
Answer: inactive

Question: Which Activity (Cortical neurone [1]) does the source give for Fc1cccc2oc3c(c12)CN(CC(F)(F)F)CCC3 here?
Answer: Active

Question: And the Activity (Cortical neurone [2])?
Answer: Active

Question: What about the Activity (Cortical neurone [3]) of the same molecule?
Answer: Active
